Source: US11140903B2, “Fungicidal compositions and methods” (Bayer CropScience LP, priority 2010, dated 2021)

Tests used:
Monilinia = assay: Fluopyram efficacy by fungus (Table 3)
Septoria = settings: Fungus: Septoria
Rusts = assay: Fluopyram efficacy by fungus (Table 3)
Description: (§1) Without wishing to be bound by theory, the applicant hypothesizes that the decreased incidence and severity of SDS observed in plants from seed treated with fluopyram contributes to improved vigor and reduced defoliation, which in turn contributes to improved yield.

Colletotrichum = assay: Fluopyram efficacy by fungus (Table 3)
Description: as §1

Fusarium = assay: Fluopyram efficacy by fungus (Table 3)
Description: as §1

Didymella = settings: Fungus: Didymella
Cylindrocladium = settings: Fungus: Cylindrocladium
Sclerotinia = assay: Fluopyram efficacy by fungus (Table 3)
soybean plants = assay: Soybean seed treatment: plant vigor, count density and yield; assay type: in vivo, Glycine max (L.) Merr.
Experimental: (§2) Soybean seeds (Glycine max (L.) Merr., an indeterminate line) were treated with Trilex® 2000 (7.12% (w/v) trifloxystrobin, 5.69% (w/v) metalaxyl), Gaucho® 600 FS (48.7%, (w/v) imidacloprid), Votivo® 240 FS (21.5%, (w/v) Bacillus firmus strain 1-1582), and fluopyram (41.5%, (w/v)) in the amounts and combinations shown in TABLE 1.
(§3) Seed growth and resistance to SDS were evaluated. Data on the incidence and severity of disease, plant vigor, plant count, plant density, defoliation, and yield were collected. Identification of SDS was based on the visual symptoms described in “Compendium of Soybean Diseases” (Glen Lee Hartman, J. B. Sinclair, and John Clark Rupe, eds. Am. Phytopathological Soc. 1999).
Vigor ratings, based on visual assessments of plant health, were collected according to the system shown in TABLE 2, with 1 being a healthy and vigorous plant and 6 being extremely low vigor.
The error bars of FIG. 3 represent standard error, and the values within each bar are the value of that bar along the y-axis.
Plant density was calculated as the change in density versus controls. […] The values above or below each bar are the value of that bar along the y-axis.
To determine yield, soybeans were harvested from each plot, weighed, and their moisture content determined. The data from each treatment were normalized to the standard weight of 60 pounds of soybeans at 13% moisture. […] The values above or below each bar are the value of that bar along the y-axis.

Pyrenophora = assay: Fluopyram efficacy by fungus (Table 3)
[1] = tested on: sudden death syndrome (SDS); assay: Soybean seed treatment: resistance to SDS (incidence, severity, defoliation); assay type: in vivo, Glycine max (L.) Merr.
Experimental: as §2, §3
Disease incidence was defined as the percentage of plants in the plot with visible symptoms of SDS. […] The values above each bar in FIG. 1 are the value of that bar along they-axis.
Symptoms of disease severity were determined as percent severity, on a scale of 0% to 100%, by examining the leaf area on the tops of plants and determining the area affected by SDS, expressed as a percentage of the total area. […] The error bars of FIG. 2 represent standard error, and the values above each bar are the value of that bar along the y-axis.
Defoliation was defined as the percentage of plants showing evidence of defoliation in a given plot (i.e., on a scale of 0% to 100%). […] The values above each bar are the value of that bar along the y-axis.

Anthracnose = assay: Fluopyram efficacy by fungus (Table 3)
Botrytis = assay: Fluopyram efficacy by fungus (Table 3)
Mycosphaerella = assay: Fluopyram efficacy by fungus (Table 3)
Sigatoka = assay: Fluopyram efficacy by fungus (Table 3)
Alternaria = assay: Fluopyram efficacy by fungus (Table 3)
Powdery mildews = settings: Fungus: Powdery mildews
Venturia = assay: Fluopyram efficacy by fungus (Table 3)

Q: Which “Fluopyram Efficacy” value (Monilinia) does the source give for `O=C(NCCc1ncc(C(F)(F)F)cc1Cl)c1ccccc1C(F)(F)F` [Fluopyram, N-{2-[3-chloro-5-(trifluoromethyl)-2-pyridinyl]ethyl}-2-trifluoromethylbenzamide] here?
A: The value was “++++”.

Q: And the “Fluopyram Efficacy” value (Septoria)?
A: Its value is “++”.

Q: What about the “Fluopyram Efficacy” value (Rusts) of the same compound?
A: The value was “+”.

Q: And the “Fluopyram Efficacy” value (Colletotrichum)?
A: The value was “++”.

Q: What about the “Fluopyram Efficacy” value (Fusarium; Fungus: Fusarium) of the same compound?
A: Its value is “+”.

Q: And the “efficacy of fluopyram against Fusarium” value (Fusarium; relative to other fungi)?
A: The value was “low”.

Q: And the “Fluopyram Efficacy” value (Didymella)?
A: Its value is “++”.

Q: What about the “Fluopyram Efficacy” value (Cylindrocladium) of the same compound?
A: The value was “++”.

Q: What about the “Fluopyram Efficacy” value (Sclerotinia) of the same compound?
A: The value was “++++”.

Q: What about the “Count density (change in plant density versus control)” value (soybean plants; fluopyram alone, 0.17-0.67 mga/seed (columns 4-6), FIG. 4, versus control) of the same compound?
A: Its value is “decreased count density”.

Q: What about the “Vigor (visual vigor rating, scale 1-6 of Table 2)” value (soybean plants; soybean seed treatment, FIG. 3) of the same compound?
A: The value was “not adversely affected”.

Q: What about the “Percent yield versus control” value (soybean plants; soybean seed treatment, FIG. 6, normalized to 60 pounds at 13% moisture, versus seeds not treated with fluopyram) of the same compound?
A: Its value is “greater percent yield”.

Q: What about the “Fluopyram Efficacy” value (Pyrenophora) of the same compound?
A: The value was “+++”.

Q: What about the “Disease incidence (percentage of plants in the plot with visible symptoms of SDS)” value ([1]; FIG. 1, compared between seeds with and without fluopyram) of the same compound?
A: The value was “significantly reduced disease incidence”.

Q: And the “Disease severity (percent leaf area affected by SDS)” value ([1]; FIG. 2, compared between seeds with and without fluopyram)?
A: The value was “less disease severity”.

Q: And the “Defoliation (percentage of plants showing evidence of defoliation in a plot)” value ([1]; FIG. 5, compared between seeds with and without fluopyram)?
A: The value was “less defoliation”.

Q: What about the “Fluopyram Efficacy” value (Anthracnose) of the same compound?
A: Its value is “+”.

Q: What about the “Fluopyram Efficacy” value (Botrytis) of the same compound?
A: The value was “++++”.

Q: And the “Fluopyram Efficacy” value (Mycosphaerella)?
A: The value was “++++”.

Q: What about the “Fluopyram Efficacy” value (Sigatoka) of the same compound?
A: Its value is “++++”.

Q: What about the “Fluopyram Efficacy” value (Alternaria) of the same compound?
A: Its value is “+++”.

Q: What about the “Fluopyram Efficacy” value (Powdery mildews) of the same compound?
A: The value was “++++”.

Q: What about the “Fluopyram Efficacy” value (Venturia) of the same compound?
A: The value was “+++”.
